Test results: PubChem BioAssay (NCI)
Values joined by “and” are separate entries in the source; they are usually repeats but may differ in a detail not shown here. Equal entries are not always repeated.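 Cells were grown in 96-well plates and exposed to each compound for 48 hours at five concentrations; endpoints were interpolated linearly between bracketing concentrations, or set to the highest concentration if not reached. GI50 = concentration required for 50% inhibition of growth. TGI denotes the concentration required for complete inhibition of growth.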

Columns and labels:
Test in all cases: NCI anticancer screen, dose series, 48 h
HL-60(TB) leukemia = tested on: HL-60(TB) leukemia
SNB-19 CNS = tested on: SNB-19 CNS
786-0 renal = tested on: 786-0 renal
SW-620 colon = tested on: SW-620 colon
UACC-257 melanoma = tested on: UACC-257 melanoma
HT29 colon = tested on: HT29 colon
A549 NSCLC = tested on: A549 NSCLC
HCT-15 colon = tested on: HCT-15 colon
SR leukemia = tested on: SR leukemia
NCI-H226 lung = tested on: NCI-H226 lung

Row | Compound | TGI (HL-60(TB) leukemia) | TGI (SNB-19 CNS) | TGI (786-0 renal) | TGI (SW-620 colon) | TGI (UACC-257 melanoma) | TGI (HT29 colon) | TGI (A549 NSCLC) | TGI (HCT-15 colon) | TGI (SR leukemia) | TGI (NCI-H226 lung) | GI50 (HCT-15 colon) | GI50 (HL-60(TB) leukemia) | GI50 (SNB-19 CNS) | GI50 (786-0 renal) | GI50 (SW-620 colon) | GI50 (NCI-H226 lung) | GI50 (UACC-257 melanoma) | GI50 (HT29 colon) | GI50 (A549 NSCLC) | GI50 (SR leukemia)
1 | O=C(NC1CCCCC1)NC12CC3CC(CC(F)(C3)C1)C2 | > 100 µM | > 100 µM | > 100 µM | > 100 µM | > 100 µM | > 100 µM | > 100 µM | – | – | – | – | – | – | – | – | – | – | – | – | –
2 | O=C(N/C(=C\c1cccc([N+](=O)[O-])c1)c1nc2c3c(ccc2[nH]1)C(=O)c1ccccc1C3=O)c1ccccc1 | – | > 100 µM | > 100 µM | > 100 µM | – | > 100 µM | > 100 µM | > 100 µM | > 100 µM | > 100 µM | – | – | – | – | – | – | – | – | – | –
3 | Cn1c(=O)nc2n(-c3ccc(F)c(F)c3)c3ccccc3nc-2c1=O | 34.9 µM | 44.9 µM | > 100 µM | 20.3 µM | 20.1 µM | 16 µM | 60.5 µM | 20.4 µM | – | > 100 µM | – | – | – | – | – | – | – | – | – | –
4 | CCCCCCCCCCCCCCCCCC1=NC(C)(C)CN1C(C)(C)CO | 4.07 µM | 4.54 µM | 2.89 µM | 2.9 µM | 3.5 µM | 3.44 µM | 3.31 µM | 3.16 µM | – | 4.06 µM | 1.38 µM | 1.15 µM | 1.79 µM | 1.45 µM | 1.48 µM | 2.14 µM | 1.78 µM | 1.44 µM | 1.68 µM | –
5 | CC1=NC(C)=C(/C(C)=N/NC(=O)c2ccccc2O)C(C)/C1=C(/C)NNC(=O)c1ccccc1O (stereo not given) | 22.4 µM | > 100 µM | 44.3 µM | > 100 µM | 76.6 µM | > 100 µM | 96.5 µM | 99 µM | 42.5 µM | – | – | – | – | – | – | – | – | – | – | –
6 | COc1ccc2cc(C(=O)N3CCC([C@@H](C)C(=O)NCc4ccc5c(c4)OCO5)CC3)[nH]c2c1 | > 100 µM | > 100 µM | > 100 µM | > 100 µM | – | > 100 µM | > 100 µM | > 100 µM | > 100 µM | > 100 µM | > 100 µM | > 100 µM | 56.7 µM | 36.7 µM | > 100 µM | > 100 µM | – | > 100 µM | > 100 µM | > 100 µM
7 | COC(=O)[C@@H](C)C[C@H](Cc1ccccc1)NC(=O)c1csc([C@@H](C[C@H](C(C)C)N(C)C(=O)[C@@H](NC(=O)[C@H]2CCCCN2C)c2ccc(F)cc2)OC(C)=O)n1 | – | > 100 µM | 6.23 µM and 42.5 µM | 25 µM and > 100 µM | > 100 µM | – | 25 µM and > 100 µM | 25 µM and > 100 µM | 6.84 µM and 17.6 µM | – | – | 0.00219 µM | 0.0163 µM and 0.0441 µM | – | – | – | – | – | – | 0.00065 µM and 0.0025 µM
8 | CC(C)(C)c1cc[n+](C[n+]2ccc(C(C)(C)C)cc2)cc1 | > 100 µM | > 100 µM | > 100 µM | > 100 µM | – | > 100 µM | > 100 µM | > 100 µM | > 100 µM | > 100 µM | – | – | – | – | – | – | – | – | – | –
9 | Nc1ccc(C(=O)CC2(O)C(=O)Nc3ccccc32)cc1 (stereo not given) | > 100 µM | > 100 µM | > 100 µM | > 100 µM | > 100 µM | > 100 µM | > 100 µM | > 100 µM | – | > 100 µM | – | – | – | – | – | – | – | – | – | –
10 | CN1CCN(c2ccncc2S(=O)(=O)N2CCN(C)CC2)CC1 | – | > 100 µM | > 100 µM | > 100 µM | > 100 µM | > 100 µM | > 100 µM | > 100 µM | – | > 100 µM | – | – | – | – | – | – | – | – | – | –
